Data from patent publication US4159338A, “Antiinflammatory-4,5-dicyclic-2-(substituted thio)-imidazoles and their corresponding sulfoxides and sulfones” (E. I. Du Pont de Nemours and Company, priority 1978, dated 1979).
Read-outs that look alike come from different tables or passages of the source.

Experiments:
[1] = system: adjuvant-induced arthritis in rats; experiment: Established Adjuvant-Induced Arthritis in Rats; format: in vivo, Charles River Lewis male rats; conditions: for ED50: Rattus norvegicus, read-out: A. A. ED50%
[2] = system: phenylquinone-induced writhing in mice; experiment: Phenylquinone Writhing Test; format: in vivo, female white mice; conditions: Mus musculus, 0.5 h, oral, at 1/2 hour
Procedure: A standard procedure for detecting and comparing the analgesic activity of compounds in this series for which there is good correlation with human efficacy is the standard phenylquinone writhing test modified from Siegmund, et al., Proc. Soc. Exp. Biol. Med. 95, 729 (1957). A test compound suspended in 1% methylcellulose was given orally to fasted (17-21 hours) female white mice, 5-20 animals per double blind test. Aqueous (0.01% phenyl-p-benzoquinone) phenylquinone was injected intraperitoneally at 24 minutes later using 0.20 ml per mouse. […] The effective analgesic dose for 50% of the mice (ED50) was calculated by the moving average method of Thompson, W. R., Bact. Rev. 11, 115-145 (1947); also time of peak action was determined for many of the compounds.

[3] = oral, 7 daily doses, established adjuvant arthritis rats, determined as % paw volume reduction from control
[4] = oral, 7 daily doses, established adjuvant arthritis rats

| Compound | ED50 [1, 3] [mg/kg] | ED50 [2] [mg/kg] | further results |
| --- | --- | --- | --- |
| FC(F)C(F)(F)Sc1nc(-c2ccc(Cl)cc2)c(-c2cccs2)[nH]1 [Example 4, 4-(4-Chlorophenyl)-2-(1,1,2,2-tetrafluoroethylthio)-5-(2-thienyl)-1H-imidazole] | 12 |  |  |
| O=S(=O)(c1nc(-c2cccs2)c(-c2cccs2)[nH]1)C(F)(F)C(F)F [Example 5, 2-(1,1,2,2-Tetrafluoroethylsulfonyl)-4,5-bis-(2-thienyl)-1H-imidazole] | 2.2 | < 130 |  |
| COc1ccc(-c2nc(SC(F)(F)C(F)F)[nH]c2-c2cccs2)cc1 [Example 8, 4-(4-Methoxyphenyl)-2-(1,1,2,2-tetrafluoroethylthio)-5-(2-thienyl)-1H-imidazole] | 30 | 45 |  |
| CC(=O)Oc1ccccc1C(=O)O [Aspirin, reference compound] |  |  | ED50 ([1]; po): 305 mg/kg |
| COc1ccc2c(c1)c(CC(=O)O)c(C)n2C(=O)c1ccc(Cl)cc1 [Indomethacin, reference compound] |  |  | ED50 ([1]; po): 0.3 mg/kg |
| FC(F)C(F)(F)Sc1nc(-c2cccs2)c(-c2cccs2)[nH]1 [Example 1, 2-[(1,1,2,2-Tetrafluoroethyl)thio]-4,5-bis-(2-thienyl)-1H-imidazole] |  | 4.6 | % paw volume reduction from control at 50 mg/kg [1, 4]: 32% |
| CCCCC1C(=O)N(c2ccccc2)N(c2ccccc2)C1=O [Phenylbutazone, reference compound] | 10 |  |  |
| FC(F)C(F)(F)Sc1nc(-c2ccc(Cl)c(Cl)c2)c(-c2cccs2)[nH]1 [Example 6, 4-(3,4-Dichlorophenyl)-2-(1,1,2,2-tetrafluoroethylthio)-5-(2-thienyl)-1H-imidazole] | 50 |  |  |
| CC(C)Cc1ccc(C(C)C(=O)O)cc1 (stereo not shown) [Ibuprofen, reference compound] | 100 |  |  |
| COc1ccc(-c2nc(S(=O)(=O)C(F)(F)C(F)F)[nH]c2-c2cccs2)cc1 [Example 9, 4-(4-Methoxyphenyl)-2-(1,1,2,2-tetrafluoroethylsulfonyl)-5-(2-thienyl)-1H-imidazole] | 5 | 1.67 |  |
| O=S(=O)(c1nc(-c2ccc(F)cc2)c(-c2cccs2)[nH]1)C(F)(F)C(F)F [Example 3, 4-(4-Fluorophenyl)-2-(1,1,2,2-tetrafluoroethylsulfonyl)-5-(2-thienyl)-1H-imidazole] | 0.1 | 2.1 |  |
| Fc1ccc(-c2nc(SC(F)(F)C(F)F)[nH]c2-c2cccs2)cc1 [Example 2, 4-(4-Fluorophenyl)-2-(1,1,2,2-tetrafluoroethylthio)-5-(2-thienyl)-1H-imidazole] | 1.3 |  |  |
| FC(F)C(F)(F)Sc1nc(-c2ccccc2)c(-c2cccnc2)[nH]1 [Example 11, 4-Phenyl-5-(3-pyridyl)-2-(1,1,2,2-tetrafluoroethylthio)-1H-imidazole] | < 25 |  |  |
| FC(F)C(F)(F)Sc1nc(-c2ccco2)c(-c2ccco2)[nH]1 [Example 10, 4,5-bis-(2-Furyl)-2-(1,1,2,2-tetrafluoroethylthio)-1H-imidazole] |  |  | % paw volume reduction from control at 50 mg/kg [1, 4]: 34% |
